Data reported in US20220243230A1, “BIOCONVERSION OF 4-COUMARIC ACID TO RESVERATROL” (Conagen Inc., priority 2022, published 2022).

Tested on: yeast cultures
Assay: effect of 4-coumaric acid at different concentrations on yeast cultures
Format: cell-based, S. cerevisiae
Settings: strains CNFS109 and CNFS110, 48 hours, 30 °C, FIG. 1
Protocol: The strains of Example 1 were tested in microcultures with 500 mg/L of 4-coumaric acid fed 24 hours post inoculation. CNFS109 and CNFS110 were inoculated into 50 ml of synthetic drop out medium without uracil (Sigma-Aldrich, St. Louis, Missouri) and incubated overnight under shaking conditions. Saturated culture was dispensed into individual wells in 24 well plates that contained 2 ml of synthetic drop out medium without uracil. 4-coumaric acid dissolved in acidified ethanol (20 g/L stock, in ethanol : water : HCl=50:49:1) was added to each well, to form media having 4-coumaric concentrations of 0 mg/L, 100 mg/L, 500 mg/L, 1000 mg/L, and 2000 mg/L, respectively. All experiments were performed in triplicate. The cultures were incubated under shaking for 48 hours (250 rpm, 30 ° C.).
The bar graph of FIG. 1 illustrates the effect of 4-coumaric acid at different concentrations on yeast cultures. […] Due to the toxicity associated with high concentrations of 4-coumaric acid which inhibited yeast from growing and metabolizing, resveratrol bioconversion was only observed when 4-coumaric was added to the yeast culture at relatively lower concentrations (FIG. 2).

Q: What does the source list for `O=C(O)/C=C/c1ccc(O)cc1` [4-coumaric acid]?
A: survival rate of yeast culture (1 g/L or 2 g/L added to the culture): declined; impact due to 4-coumaric acid toxicity on yeast cultures (concentration of up to 500 mg/L): little or no impact
